These results are taken from ChEMBL document CHEMBL1123187, “3-Hydroxy-3-methylglutaryl-coenzyme A reductase inhibitors. 5. 6-(Fluoren-9-yl)- and 6-(fluoren-9-ylidenyl)-3,5-dihydroxyhexanoic acids and their lactone derivatives” (J Med Chem, 1986).

As a reminder, the IC50 is the concentration at which inhibition is half-maximal. A high value points to weaker potency in that assay.

SMILES strings stand for the structures.

The target in assay [1] is T1, 3-hydroxy-3-methylglutaryl-coenzyme A reductase (Rattus norvegicus) (UniProt P51639).
T1 sequence (whole entry): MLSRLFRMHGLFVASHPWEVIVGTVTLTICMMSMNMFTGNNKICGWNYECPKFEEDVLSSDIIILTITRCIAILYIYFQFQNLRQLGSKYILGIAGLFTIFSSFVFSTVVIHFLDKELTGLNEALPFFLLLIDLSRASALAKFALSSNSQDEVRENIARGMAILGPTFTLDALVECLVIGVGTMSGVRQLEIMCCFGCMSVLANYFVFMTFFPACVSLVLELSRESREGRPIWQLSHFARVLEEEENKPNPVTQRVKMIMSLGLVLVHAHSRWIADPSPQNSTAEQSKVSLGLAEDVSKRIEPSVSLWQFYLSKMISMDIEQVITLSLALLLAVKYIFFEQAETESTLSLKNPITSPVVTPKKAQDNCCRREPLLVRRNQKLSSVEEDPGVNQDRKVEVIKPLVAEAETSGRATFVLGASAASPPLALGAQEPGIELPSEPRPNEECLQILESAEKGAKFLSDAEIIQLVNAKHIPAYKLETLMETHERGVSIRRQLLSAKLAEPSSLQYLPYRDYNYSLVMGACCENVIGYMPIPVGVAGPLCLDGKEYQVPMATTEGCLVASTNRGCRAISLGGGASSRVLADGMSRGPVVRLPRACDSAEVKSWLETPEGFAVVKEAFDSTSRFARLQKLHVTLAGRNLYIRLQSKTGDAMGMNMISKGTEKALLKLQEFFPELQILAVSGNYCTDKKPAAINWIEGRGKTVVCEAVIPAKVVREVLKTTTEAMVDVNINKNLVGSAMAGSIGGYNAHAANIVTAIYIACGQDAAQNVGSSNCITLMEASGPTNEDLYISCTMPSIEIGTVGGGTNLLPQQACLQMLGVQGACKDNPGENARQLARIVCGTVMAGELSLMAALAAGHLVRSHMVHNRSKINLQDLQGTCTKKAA
The assay is described as follows: compound was tested for its ability to inhibit solubilized, purified rat liver HMG-CoA reductase, relative to compactin(100).

The target in assay [2] is T2, 3-hydroxy-3-methylglutaryl-coenzyme A reductase (Rattus norvegicus, UniProt P51639).
T2 sequence (P51639 whole entry): T1 sequence (whole entry)
The assay is described as follows: Compound was tested in vitro for its ability to inhibit rat liver HMG-CoA reductase.

Assay [3] addresses T1, 3-hydroxy-3-methylglutaryl-coenzyme A reductase (Rattus norvegicus). The assay is described as follows: Compound was tested for its ability to inhibit solubilized, purified rat liver HMG-CoA reductase, relative to compactin(100).

Regarding `O=C1C[C@H](O)C[C@@H](/C=C/c2c(Cl)cc(Cl)cc2-c2ccccc2)O1`, the Relative potency in assay [1] stood at 26.
Turning to `Cc1cc(C)c2c(c1)-c1ccccc1/C2=C\[C@@H]1C[C@@H](O)CC(=O)O1`, in assay [2], the half-inhibitory concentration (IC50) worked out at 750 nM. The same molecule yielded a Relative potency in assay [3] of 1.9.
As to `O=C1C[C@H](O)C[C@@H](C=C2c3ccccc3-c3ccccc32)O1`, in assay [3], the Relative potency was found to be 1.5.
The molecule `Cc1cc(C)cc(-c2cc(C)cc(C)c2/C=C/[C@@H]2C[C@@H](O)CC(=O)O2)c1` displayed a Relative potency in assay [1] of 80.
In turn, `O=C1C[C@H](O)C[C@@H](/C=C/c2c(Cl)cc(Cl)cc2-c2ccc(F)cc2)O1` showed a Relative potency in assay [1] of 100.
As for `Cc1cc(C)c2c(c1)-c1cc(C)cc(C)c1C2=C[C@@H]1C[C@@H](O)CC(=O)O1`, in assay [2], the IC50 turned out to be 830 nM. Also, in assay [3], the Relative potency is 1.7.
The matching figures for `O=C1C[C@H](O)CC(CC2c3cc(F)ccc3-c3cc(Cl)cc(Cl)c32)O1` (stereo partly specified): 85 nM and 14.
With `O=C1C[C@H](O)C[C@@H](/C=C/c2ccccc2-c2ccccc2)O1`, the Relative potency in assay [1] was found to be 0.63.
